The structures appear in SMILES notation.

human SGLT2, sequence (P31639 whole entry): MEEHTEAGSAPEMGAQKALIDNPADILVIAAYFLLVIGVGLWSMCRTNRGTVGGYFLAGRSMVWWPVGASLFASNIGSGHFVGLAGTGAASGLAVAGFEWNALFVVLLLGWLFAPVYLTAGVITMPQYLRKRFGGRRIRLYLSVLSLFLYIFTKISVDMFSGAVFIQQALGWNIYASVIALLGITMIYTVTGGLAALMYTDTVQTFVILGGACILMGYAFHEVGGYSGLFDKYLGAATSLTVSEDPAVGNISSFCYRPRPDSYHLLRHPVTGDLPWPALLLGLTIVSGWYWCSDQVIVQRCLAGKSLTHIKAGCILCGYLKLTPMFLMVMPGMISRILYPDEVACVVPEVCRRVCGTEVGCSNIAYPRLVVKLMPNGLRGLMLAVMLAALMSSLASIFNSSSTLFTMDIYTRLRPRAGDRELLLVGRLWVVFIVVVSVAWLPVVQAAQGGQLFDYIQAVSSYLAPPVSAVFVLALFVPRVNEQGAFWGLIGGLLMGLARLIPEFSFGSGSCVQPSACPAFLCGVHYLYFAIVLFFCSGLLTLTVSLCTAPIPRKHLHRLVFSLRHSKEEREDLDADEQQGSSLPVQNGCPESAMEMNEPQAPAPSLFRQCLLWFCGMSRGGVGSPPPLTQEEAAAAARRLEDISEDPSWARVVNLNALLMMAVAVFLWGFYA

The target in this assay is human SGLT2 (Homo sapiens (Human), UniProt P31639). Description: Inhibitory effects on human SGLT2 activities (14C-AMG uptake, sodium-dependent glucose transport assay). The assay is classed as cell-based. As to conditions: CHO cells stably expressing hSGLT2, 37° C., 2 h, single determinations. The method, boiled down:
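CHO cells stably expressing hSGLT2 were preincubated 10 min at 37 °C in choline (Na+-free) buffer, then exposed 2 h at 37 °C to compound in Na+ uptake buffer with 8 μM 14C-AMG and 1 mM unlabeled AMG. Radioactivity was scintillation counted; IC50 came from nonlinear regression.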
`CCOc1ccc(Cc2cc([C@@H]3O[C@H](CO)[C@@H](O)[C@H](O)[C@H]3O)cc(-c3cccs3)c2C)cc1` [Example E090, (2S,3R,4R,5S,6R)-2-(3-(4-Ethoxybenzyl)-4-methyl-5-(thiophen-2-yl)phenyl)-6-(hydroxymethyl)-tetrahydro-2H-pyran-3,4,5-triol]: half-maximal inhibition (IC50) required 3.73 nM.
`CS[C@H]1O[C@@H](c2ccc(Cl)c(Cc3ccc4c(c3)OCCO4)c2)[C@H](O)[C@@H](O)[C@@H]1O` [Example E091, (2S,3R,4R,5S,6R)-2-(4-Chloro-3-((2,3-dihydrobenzo[b][1,4]dioxin-6-yl)methyl)phenyl)-6-(methylthio)tetrahydro-2H-pyran-3,4,5-triol] registered an IC50 of 0.629 nM.
As for `CO[C@H]1O[C@@H](c2ccc(Cl)c(Cc3ccc4c(c3)OCCO4)c2)[C@H](O)[C@@H](O)[C@@H]1O` [Example E092, (2S,3R,4R,5S,6S)-2-(4-Chloro-3-((2,3-dihydrobenzo[b][1,4]dioxin-6-yl)methyl)phenyl)-6-methoxy-tetrahydro-2H-pyran-3,4,5-triol], the figure is 8.65 nM; as for `COC1O[C@@H](c2ccc(Cl)c(Cc3ccc4c(c3)OCCO4)c2)[C@H](O)[C@@H](O)[C@@H]1O` (stereo partly drawn) [Example E093, (2S,3R,4R,5S)-2-(4-Chloro-3-((2,3-dihydrobenzo[b][1,4]dioxin-6-yl)methyl)phenyl)-6-methoxytetrahydro-2H-pyran-3,4,5-triol], 16.8 nM; as for `CO[C@@H]1O[C@@H](c2ccc(Cl)c(Cc3ccc4c(c3)OCCO4)c2)[C@H](O)[C@@H](O)[C@@H]1O` [Example E094, (2S,3R,4R,5S,6R)-2-(4-Chloro-3-((2,3-dihydrobenzo[b][1,4]dioxin-6-yl)methyl)phenyl)-6-methoxy-tetrahydro-2H-pyran-3,4,5-triol], 53.9 nM.
The compound `COc1cc(Cl)c(Cc2ccc3c(c2)OCCO3)cc1[C@@H]1O[C@H](SC)[C@@H](O)[C@H](O)[C@H]1O` [Example E095, (2S,3R,4R,5S,6R)-2-(4-Chloro-5-((2,3-dihydrobenzo[b][1,4]dioxin-6-yl)methyl)-2-methoxyphenyl)-6-(methylthio)-tetrahydro-2H-pyran-3,4,5-triol] gave a half-inhibitory concentration (IC50) of 0.628 nM.
`COc1cc(Cl)c(Cc2ccc3c(c2)OCCO3)cc1[C@@H]1O[C@H](OC)[C@@H](O)[C@H](O)[C@H]1O` [Example E096, (2S,3R,4R,5S,6S)-2-(4-Chloro-5-((2,3-dihydrobenzo[b][1,4]dioxin-6-yl)methyl)-2-methoxyphenyl)-6-methoxy-tetrahydro-2H-pyran-3,4,5-triol] came in with a concentration for half-maximal inhibition (IC50) of 18.5 nM.
In the case of `COc1ccc(Cc2cc([C@@H]3O[C@H](OC)[C@@H](O)[C@H](O)[C@H]3O)c3c(c2Br)CCC3)cc1` [Example E097, (2S,3R,4R,5S,6S)-2-(7-Bromo-6-(4-methoxybenzyl)-2,3-dihydro-1H-inden-4-yl)-6-methoxy-tetrahydro-2H-pyran-3,4,5-triol], the IC50 worked out at 3.83 nM.
Compound `CS[C@H]1O[C@@H](c2cc(Cc3ccc4c(c3)OCCO4)c(Cl)cc2O)[C@H](O)[C@@H](O)[C@@H]1O` [Example E098, (2S,3R,4R,5S,6R)-2-(4-Chloro-5-((2,3-dihydrobenzo[b][1,4]dioxin-6-yl)methyl)-2-hydroxyphenyl)-6-(methylthio)-tetrahydro-2H-pyran-3,4,5-triol] returned an IC50 of 0.454 nM.
In the case of `CCc1ccc(C2OCc3ccc([C@@H]4O[C@H](CO)[C@@H](O)[C@H](O)[C@H]4O)cc32)cc1` (stereo partly drawn) [Example E099, (2S,3R,4R,5S,6R)-2-(3-(4-Ethylphenyl)-1,3-dihydroisobenzofuran-5-yl)-6-(hydroxymethyl)-tetrahydro-2H-pyran-3,4,5-triol], the IC50 is 56.2 nM.
In the case of `CSc1ccc(C2OCc3ccc([C@@H]4O[C@H](CO)[C@@H](O)[C@H](O)[C@H]4O)cc32)cc1` (stereo partly drawn) [Example E102, (2R,3S,4R,5R,6S)-2-(Hydroxymethyl)-6-(3-(4-(methylthio)phenyl)-1,3-dihydroisobenzofuran-5-yl)-tetrahydro-2H-pyran-3,4,5-triol], the IC50 is 75.7 nM.
The result for `OC[C@H]1O[C@@H](c2cc(Cc3ccc4c(c3)OCCO4)c(Cl)c3c2OCCO3)[C@H](O)[C@@H](O)[C@@H]1O` [Example E103, (2S,3R,4R,5S,6R)-2-(8-Chloro-7-((2,3-dihydrobenzo[b][1,4]dioxin-6-yl)methyl)-2,3-dihydrobenzo[b][1,4]dioxin-5-yl)-6-(hydroxymethyl)tetrahydro-2H-pyran-3,4,5-triol] reads 1.82 nM; that for `COc1ccc(Cc2cc([C@@H]3O[C@H](CO)[C@@H](O)[C@H](O)[C@H]3O)c3c(c2Cl)OCCO3)cc1` [Example E104, (2S,3R,4R,5S,6R)-2-(8-Chloro-7-(4-methoxybenzyl)-2,3-dihydrobenzo[b][1,4]dioxin-5-yl)-6-(hydroxymethyl)tetrahydro-2H-pyran-3,4,5-triol], 2 nM.
`CCc1ccc(Cc2cc([C@@H]3O[C@H](CO)[C@@H](O)[C@H](O)[C@H]3O)c3c(c2Cl)OCCO3)cc1` [Example E105, (2S,3R,4R,5S,6R)-2-(8-Chloro-7-(4-ethylbenzyl)-2,3-dihydrobenzo[b][1,4]dioxin-5-yl)-6-(hydroxymethyl)tetrahydro-2H-pyran-3,4,5-triol] came in with an IC50 of 0.923 nM.
For `OC[C@H]1O[C@@H](c2cc(Cc3ccc4c(c3)OCCO4)c(Cl)c3c2CCC3)[C@H](O)[C@@H](O)[C@@H]1O` [Example E106, (2S,3R,4R,5S,6R)-2-(7-Chloro-6-((2,3-dihydrobenzo[b][1,4]dioxin-6-yl)methyl)-2,3-dihydro-1H-inden-4-yl)-6-(hydroxymethyl)tetrahydro-2H-pyran-3,4,5-triol], half-maximal inhibition (IC50) was put at 0.616 nM.
In the case of `Cc1c(Cc2ccc3c(c2)OCCO3)cc([C@@H]2O[C@H](CO)[C@@H](O)[C@H](O)[C@H]2O)c2c1CCC2` [Example E107, (2S,3R,4R,5S,6R)-2-(6-((2,3-Dihydrobenzo[b][1,4]dioxin-6-yl)methyl)-7-methyl-2,3-dihydro-1H-inden-4-yl)-6-(hydroxymethyl)tetrahydro-2H-pyran-3,4,5-triol], the IC50 came to 0.86 nM.
Compound `OC[C@H]1O[C@@H](c2cc(Cc3ccc4c(c3)OCCO4)c(C(F)F)c3c2CCC3)[C@H](O)[C@@H](O)[C@@H]1O` [Example E108, (2S,3R,4R,5S,6R)-2-(7-(Difluoromethyl)-6-((2,3-dihydrobenzo[b][1,4]dioxin-6-yl)methyl)-2,3-dihydro-1H-inden-4-yl)-6-(hydroxymethyl)tetrahydro-2H-pyran-3,4,5-triol] registered an IC50 of 1.26 nM.
`CCOc1ccc(Cc2cc([C@@H]3O[C@H](OC)[C@@H](O)[C@H](O)[C@H]3O)c(OC)cc2Cl)cc1` [Example E109, (2S,3R,4R,5S,6S)-2-(4-Chloro-5-(4-ethoxybenzyl)-2-methoxyphenyl)-6-methoxytetrahydro-2H-pyran-3,4,5-triol] had an IC50 of 29.1 nM.
`C=CCOc1cc(Cl)c(Cc2ccc(OC)cc2)cc1[C@@H]1O[C@H](SC)[C@@H](O)[C@H](O)[C@H]1O` [Example E110, (2S,3R,4R,5S,6R)-2-(2-(Allyloxy)-4-chloro-5-(4-methoxybenzyl)phenyl)-6-(methylthio)tetrahydro-2H-pyran-3,4,5-triol] returned a half-maximal inhibitory concentration (IC50) of 0.504 nM.
As for `CCOc1ccc(Cc2cc([C@@H]3O[C@H](SC)[C@@H](O)[C@H](O)[C@H]3O)c(OC)cc2Cl)cc1` [Example E111, (2S,3R,4R,5S,6R)-2-(4-Chloro-5-(4-ethoxybenzyl)-2-methoxyphenyl)-6-(methylthio)tetrahydro-2H-pyran-3,4,5-triol], the figure is 0.783 nM.

As usually defined, the IC50 is the point on the concentration scale where inhibition reaches its midpoint. A low value points to inhibition by little substance.
